# Measured values reported in ChEMBL document CHEMBL1156935, “Discovery of potent BACE-1 inhibitors containing a new hydroxyethylene (HE) scaffold: exploration of P1' alkoxy residues and an aminoethylene (AE) central core” (Bioorg Med Chem, 2010).
# How the values were obtained:
# Cathepsin D = Cathepsin D (Homo sapiens, UniProt P07339)
# Description: Inhibition of human cathepsin D
# Beta-secretase 1 = Beta-secretase 1 (Homo sapiens, UniProt P56817)
# Description: Inhibition of human BACE1 expressed in Escherichia coli BL21(DE3) by resolved fluorescence assay
# Homo sapiens = organism: Homo sapiens; assay: Selectivity for human BACE1 over human cathepsin D
# Beta-secretase 1, sequence (P56817 whole entry): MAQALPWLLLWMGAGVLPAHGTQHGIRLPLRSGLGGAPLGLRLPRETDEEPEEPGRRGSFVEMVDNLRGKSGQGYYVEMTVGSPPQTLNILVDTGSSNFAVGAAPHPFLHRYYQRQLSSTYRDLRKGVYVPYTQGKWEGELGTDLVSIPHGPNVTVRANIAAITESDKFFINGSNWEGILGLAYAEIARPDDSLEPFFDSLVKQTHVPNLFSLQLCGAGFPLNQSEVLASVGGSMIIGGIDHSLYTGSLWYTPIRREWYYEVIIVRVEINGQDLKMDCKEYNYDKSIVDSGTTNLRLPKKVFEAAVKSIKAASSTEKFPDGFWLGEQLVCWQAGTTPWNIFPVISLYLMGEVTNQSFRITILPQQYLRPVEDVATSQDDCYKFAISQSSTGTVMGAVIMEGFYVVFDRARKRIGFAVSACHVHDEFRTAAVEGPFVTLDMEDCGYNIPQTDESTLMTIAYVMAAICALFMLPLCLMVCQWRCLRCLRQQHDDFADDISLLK
# Cathepsin D, sequence (P07339 65-162 limits assumed): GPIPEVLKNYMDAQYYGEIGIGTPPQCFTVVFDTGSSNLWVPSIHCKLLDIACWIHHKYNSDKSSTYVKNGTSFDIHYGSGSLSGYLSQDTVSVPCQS
# Cathepsin D, sequence (P07339 169-412 limits assumed): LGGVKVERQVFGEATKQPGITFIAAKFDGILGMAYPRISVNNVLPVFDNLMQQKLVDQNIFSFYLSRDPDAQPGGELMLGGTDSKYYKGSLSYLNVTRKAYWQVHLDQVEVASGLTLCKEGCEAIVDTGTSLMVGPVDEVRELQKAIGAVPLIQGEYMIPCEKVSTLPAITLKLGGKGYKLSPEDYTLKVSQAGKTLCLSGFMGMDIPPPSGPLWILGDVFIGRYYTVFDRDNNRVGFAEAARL
Ki (Cathepsin D) [nM],Ki (Beta-secretase 1) [nM],Ratio Ki (Homo sapiens),SMILES
> 5000,140,–,"CO[C@H](C[C@H](N)C(COc1cc(F)cc(F)c1)NC(=O)c1cc(C(=O)N[C@H](C)c2ccccc2)cc(N(C)S(C)(=O)=O)c1)C(=O)N[C@H](C(=O)NCc1ccccc1)C(C)C (single isomer, unassigned)"
130,3.3,–,C=CCO[C@H](C[C@H](O)[C@H](COc1cc(F)cc(F)c1)NC(=O)c1cc(C(=O)N[C@H](C)c2ccccc2)cc(N(C)S(C)(=O)=O)c1)C(=O)N[C@H](C(=O)NCc1ccccc1)C(C)C
61,3,–,CCCO[C@H](C[C@H](O)[C@H](COc1cc(F)cc(F)c1)NC(=O)c1cc(C(=O)N[C@H](C)c2ccccc2)cc(N(C)S(C)(=O)=O)c1)C(=O)N[C@H](C(=O)NCc1ccccc1)C(C)C
62,20,1.6,CC(C)[C@H](NC(=O)[C@@H](C[C@H](O)[C@H](COc1cc(F)cc(F)c1)NC(=O)c1cc(C(=O)N[C@H](C)c2ccccc2)cc(N(C)S(C)(=O)=O)c1)OCc1ccccc1)C(=O)NCc1ccccc1
3350,2.1,> 1500,CCO[C@H](C[C@H](O)[C@H](COc1cc(F)cc(F)c1)NC(=O)c1cc(C(=O)N[C@H](C)c2ccccc2)cc(N(C)S(C)(=O)=O)c1)C(=O)N[C@H](C(=O)NCc1ccccc1)C(C)C
> 5000,130,–,"CO[C@H](CCC(COc1cc(F)cc(F)c1)NC(=O)c1cc(C(=O)N[C@H](C)c2ccccc2)cc(N(C)S(C)(=O)=O)c1)C(=O)N[C@H](C(=O)NCc1ccccc1)C(C)C (single isomer, unassigned)"
–,1.3,–,CC(C)[C@H](NC(=O)[C@@H](C[C@H](O)[C@H](COc1cc(F)cc(F)c1)NC(=O)c1cc(C(=O)N[C@H](C)c2ccccc2)cc(N(C)S(C)(=O)=O)c1)OCC1CC1)C(=O)NCc1ccccc1
> 5000,70,–,"CO[C@H](C[C@H](N=[N+]=[N-])C(COc1cc(F)cc(F)c1)NC(=O)c1cc(C(=O)N[C@H](C)c2ccccc2)cc(N(C)S(C)(=O)=O)c1)C(=O)N[C@H](C(=O)NCc1ccccc1)C(C)C (single isomer, unassigned)"
